One assay addresses T1, JNK1 (Homo sapiens, UniProt P45983).
T1 construct: purchased Carna Biosciences
Description: JNK1 biochemical assays (one or more of: time resolved fluorescence, Z'-LYTE Cascade, radioactive). The settings on record: Table 2; JNK1 IC50 activity level; read-out: Act. Level.
T1 sequence (P45983 whole entry): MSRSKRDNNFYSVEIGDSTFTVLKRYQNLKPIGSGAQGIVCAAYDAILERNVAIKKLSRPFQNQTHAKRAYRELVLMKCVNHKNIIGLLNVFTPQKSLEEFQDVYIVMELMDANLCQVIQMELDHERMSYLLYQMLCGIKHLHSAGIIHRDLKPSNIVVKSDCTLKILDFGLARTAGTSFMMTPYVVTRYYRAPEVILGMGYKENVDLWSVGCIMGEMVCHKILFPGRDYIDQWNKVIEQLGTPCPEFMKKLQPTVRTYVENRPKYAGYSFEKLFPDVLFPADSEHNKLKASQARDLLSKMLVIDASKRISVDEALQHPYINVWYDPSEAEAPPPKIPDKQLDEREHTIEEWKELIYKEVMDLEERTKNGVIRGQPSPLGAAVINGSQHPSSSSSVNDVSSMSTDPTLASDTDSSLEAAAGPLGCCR
On to `NC(=O)c1cnc(N[C@H]2CCc3cnccc3C2)nc1N[C@@H]1CCC[C@H](O)C1` [Example B-95, 4-((1R,3S)-3-hydroxycyclohexylamino)-2-((S)-5,6,7,8-tetrahydroisoquinolin-6-ylamino)pyrimidine-5-carboxamide], for which the IC50 is less than 0.2 µM. For the compound `COc1ccccc1CNc1ncc(C(N)=O)c(Nc2ccccc2)n1` [Example B-60, 2-(2-methoxybenzylamino)-4-(phenylamino)pyrimidine-5-carboxamide], the IC50 fell in the range of 0.2 to 0.8 µM. As for `CN1CCCC1CCNc1ncc(C(N)=O)c(Nc2ccccc2)n1` (centres unmarked) [Example B-62, 2-(2-(1-methylpyrrolidin-2-yl)ethylamino)-4-(phenylamino)pyrimidine-5-carboxamide], the IC50 lay in the range of 1 to 10 µM.

The same assay, now with this note: Table 3; JNK1 IC50 activity level; read-out: Act. Level.
Take `CO[C@H]1CC[C@H](Nc2ncc(C#N)c(N[C@H]3CC[C@@H](O)CC3)n2)CC1` [Example C-12, 4-((1s,4s)-4-hydroxycyclohexylamino)-2-((1r,4r)-4-methoxycyclohexylamino) pyrimidine-5-carbonitrile]: the IC50 was 0.2 to 0.8 µM. Same read-out and setting: with `CO[C@H]1CC[C@H](Nc2ncc(C#N)c(N[C@@H]3CCCC[C@](C)(O)C3)n2)CC1` [Example C-50, 4-((1R,3S)-3-hydroxy-3-methylcycloheptylamino)-2-((1r,4R)-4-methoxycyclohexylamino) pyrimidine-5-carbonitrile] the figure was 0.2 to 0.8 µM; with `CC(C)CNc1nc(N[C@H]2CC[C@H](O)CC2)ncc1C#N` [Example C-55, 2-((1r,4r)-4-hydroxycyclohexylamino)-4-(isobutylamino)pyrimidine-5-carbonitrile], 1 to 10 µM.

Turning to `N#Cc1cnc(N[C@H]2CC[C@H](OC(F)F)CC2)nc1N[C@@H]1CCCC[C@H](O)C1` [Example C-32, 2-((1r,4R)-4-(difluoromethoxy)cyclohexylamino)-4-((1R,3S)-3-hydroxycycloheptylamino) pyrimidine-5-carbonitrile], the IC50 is less than 0.2 µM. As for `CN(C)C(=O)[C@H]1CC[C@H](Nc2ncc(C#N)c(N[C@@H]3CCCOC3)n2)CC1` [Example C-54, (1R,4r)-4-(5-cyano-4-((R)-tetrahydro-2H-pyran-3-ylamino)pyrimidin-2-ylamino)-N,N-dimethylcyclohexanecarboxamide], the IC50 was 0.2 to 0.8 µM.

The same assay, now with this note: one or more of the JNK1 biochemical assays; read-out: Act. Level (JNK1 IC50 activity level).
As for `CCO[C@H]1CC[C@H](Nc2ncc(C(N)=O)c(N[C@@H]3CCC[C@H]3CO)n2)CC1` [Example 259, 2-((1r,4R)-4-ethoxycyclohexylamino)-4-((1R,2R)-2-(hydroxymethyl)cyclopentylamino)pyrimidine-5-carboxamide], the IC50 is less than 0.2 µM. Turning to `NC(=O)c1cnc(N[C@H]2CC[C@H](OC(F)F)CC2)nc1N[C@@H]1CCC[C@H]1CO` [Example 329, 2-((1r,4R)-4-(difluoromethoxy)cyclohexylamino)-4-((1R,2R)-2-(hydroxymethyl)cyclopentylamino)pyrimidine-5-carboxamide], the IC50 is less than 0.2 µM.

As to `NC(=O)c1cnc(N[C@H]2CC[C@H](O)CC2)nc1NC1(C2CC2)CC1` [Example 355, 4-(bi(cycloprop)ylamino)-2-((1r,4r)-4-hydroxycyclohexylamino)pyrimidine-5-carboxamide], the IC50 is less than 0.2 µM.

For `NC(=O)c1cnc(NC2CCOCC2)nc1N[C@@H]1CCC[C@@H]1CO` [Example 252, 4-((1R,2S)-2-(hydroxymethyl)cyclopentylamino)-2-(tetrahydro-2H-pyran-4-ylamino)pyrimidine-5-carboxamide], the IC50 is less than 0.2 µM. Take `CC(C)(C)Nc1ncc(C(N)=O)c(N[C@H]2CCC(C)(C)[C@@H](O)C2)n1` [Example 323, 2-(tert-butylamino)-4-((1S,3S)-3-hydroxy-4,4-dimethylcyclohexylamino)pyrimidine-5-carboxamide]: the IC50 was 0.2 to 0.8 µM. Regarding `CO[C@H]1CC[C@H](Nc2ncc(C(N)=O)c(N[C@@H](C)C(C)C)n2)CC1` [Example 283, 2-((1r,4S)-4-methoxycyclohexylamino)-4-((S)-3-methylbutan-2-ylamino)pyrimidine-5-carboxamide], the IC50 was less than 0.2 µM. On to `CC(C)(Nc1nc(N[C@H]2CCCOC2)ncc1C(N)=O)C1CC1` [Example 468, (S)-4-(2-cyclopropylpropan-2-ylamino)-2-(tetrahydro-2H-pyran-3-ylamino)pyrimidine-5-carboxamide], for which the IC50 was less than 0.2 µM. On the same count and under the same terms, then `CCO[C@H]1CC[C@H](Nc2ncc(C(N)=O)c(NC(C)C)n2)CC1` [Example 224, 2-((1r,4r)-4-ethoxycyclohexylamino)-4-(isopropylamino)pyrimidine-5-carboxamide], with less than 0.2 µM; and `CN(C)C(=O)[C@H]1CC[C@H](Nc2ncc(C(N)=O)c(NC(C)(C)C)n2)CC1` [Example 308, 4-(tert-butylamino)-2-((1r,4r)-4-(dimethylcarbamoyl)cyclohexylamino)pyrimidine-5-carboxamide], with less than 0.2 µM. As for `C[C@@H](Nc1nc(NC23CCC(O)(CC2)C3)ncc1C(N)=O)C1CC1` [Example 450, (R)-4-(1-cyclopropylethylamino)-2-(4-hydroxybicyclo[2.2.1]heptan-1-ylamino)pyrimidine-5-carboxamide], the IC50 is less than 0.2 µM. As to `CO[C@H]1CC[C@H](Nc2ncc(C(N)=O)c(N[C@H](C)C3CCC3)n2)CC1` [Example 296, 4-((R)-1-cyclobutylethylamino)-2-((1r,4R)-4-methoxycyclohexylamino)pyrimidine-5-carboxamide], the IC50 was 1 to 10 µM. As for `NC(=O)c1cnc(NC23CCC(O)(CC2)C3)nc1NC1CCC1` [Example 447, 4-(cyclobutylamino)-2-(4-hydroxybicyclo[2.2.1]heptan-1-ylamino)pyrimidine-5-carboxamide], the IC50 is less than 0.2 µM. For the compound `C[C@@H](Nc1nc(N[C@H]2CC[C@H](C(=O)N(C)C)CC2)ncc1C(N)=O)C1CC1` [Example 425, 4-((R)-1-cyclopropylethylamino)-2-((1r,4R)-4-(dimethylcarbamoyl)cyclohexylamino)pyrimidine-5-carboxamide], the IC50 is less than 0.2 µM. Consider `CC[C@@H](Nc1nc(N[C@H]2CC[C@H](OC)CC2)ncc1C(N)=O)C1CC1` [Example 374, 4-((R)-1-cyclopropylpropylamino)-2-((1r,4R)-4-methoxycyclohexylamino)pyrimidine-5-carboxamide], for which the IC50 was less than 0.2 µM. On the same count and under the same terms, then `CC1CCC1Nc1nc(N[C@H]2CC[C@H](O)CC2)ncc1C(N)=O` (some centres unmarked) [Example 246, 2-((1r,4r)-4-hydroxycyclohexylamino)-4-(2-methylcyclobutylamino)pyrimidine-5-carboxamide], with less than 0.2 µM; and `CCCC(C)(C)Nc1nc(N[C@H]2CC[C@H](OCC)CC2)ncc1C(N)=O` [Example 391, 2-((1r,4r)-4-ethoxycyclohexylamino)-4-(2-methylpentan-2-ylamino)pyrimidine-5-carboxamide], with less than 0.2 µM; and `C[C@@H](Nc1nc(N[C@H]2CC[C@H](OC3CC3)CC2)ncc1C(N)=O)C1CC1` [Example 410, 2-((1r,4R)-4-cyclopropoxycyclohexylamino)-4-((R)-1-cyclopropylethylamino)pyrimidine-5-carboxamide], with less than 0.2 µM.

The same assay, now with this note: tested in one or more of the JNK1 biochemical assays; read-out: Act. Level (JNK1 biochemical assay IC50 activity level).
Consider `NC[C@H]1CC[C@@H](Nc2nc(NC3CCOCC3)ncc2C(N)=O)CC1` [Example A-108, 4-((1s,4s)-4-(aminomethyl)cyclohexylamino)-2-(tetrahydro-2H-pyran-4-ylamino)pyrimidine-5-carboxamide], for which the IC50 is less than 0.2 µM. On to `CO[C@H]1CC[C@H](Nc2ncc(C(N)=O)c(N[C@H]3CC[C@@H](O)CC3)n2)CC1` [Example A-101, 4-((1s,4s)-4-hydroxycyclohexylamino)-2-((1r,4r)-4-methoxycyclohexylamino)pyrimidine-5-carboxamide], for which the IC50 is less than 0.2 µM. As for `NC(=O)c1cnc(NC2CCC(F)(F)CC2)nc1N[C@@H]1CCC[C@H]1O` [Example A-5, 2-(4,4-difluorocyclohexylamino)-4-((1R,2R)-2-hydroxycyclopentylamino)pyrimidine-5-carboxamide], the IC50 was less than 0.2 µM. Consider `CO[C@H]1CC[C@H](Nc2ncc(C(N)=O)c(N[C@H]3CC[C@@H](N)CC3)n2)CC1` [Example A-120, 4-((1s,4s)-4-aminocyclohexylamino)-2-((1r,4r)-4-methoxycyclohexylamino)pyrimidine-5-carboxamide], for which the IC50 is less than 0.2 µM. As for `CCO[C@H]1CC[C@H](Nc2ncc(C(N)=O)c(N[C@@H]3CC[C@@H](C)[C@H](O)C3)n2)CC1` [Example A-172, 2-((1r,4R)-4-ethoxycyclohexylamino)-4-((1R,3R,4R)-3-hydroxy-4-methylcyclohexylamino)pyrimidine-5-carboxamide], the IC50 is less than 0.2 µM. As for `CCO[C@H]1CC[C@H](Nc2ncc(C(N)=O)c(N[C@H]3CCC[C@@H]3OC)n2)CC1` [Example A-103, 2-((1r,4S)-4-ethoxycyclohexylamino)-4-((1S,2S)-2-methoxycyclopentylamino)pyrimidine-5-carboxamide], the IC50 was less than 0.2 µM. `CN[C@H]1CC[C@H](Nc2ncc(C(N)=O)c(N[C@@H]3CCC[C@H](O)C3)n2)CC1` [Example A-49, 4-((1R,3S)-3-hydroxycyclohexylamino)-2-((1r,4R)-4-(methylamino)cyclohexylamino)pyrimidine-5-carboxamide]: the IC50 is less than 0.2 µM.

`CO[C@H]1CC[C@H](Nc2ncc(C(N)=O)c(NC3CCOCC3)n2)CC1` [Example A-55, 2-((1r,4r)-4-methoxycyclohexylamino)-4-(tetrahydro-2H-pyran-4-ylamino)pyrimidine-5-carboxamide]: the IC50 was 0.2 to 0.8 µM.

`CC(C)(O)[C@H]1CC[C@@H](Nc2nc(NC3CCOCC3)ncc2C(N)=O)CC1` [Example A-111, 4-((1s,4s)-4-(2-hydroxypropan-2-yl)cyclohexylamino)-2-(tetrahydro-2H-pyran-4-ylamino)pyrimidine-5-carboxamide]: the IC50 was less than 0.2 µM. `NC(=O)c1cnc(N[C@H]2CC[C@H](OCC(F)(F)F)CC2)nc1N[C@@H]1CCC[C@H]1O` [Example A-156, 4-((1R,2R)-2-hydroxycyclopentylamino)-2-((1r,4R)-4-(2,2,2-trifluoroethoxy)cyclohexylamino)pyrimidine-5-carboxamid]: the IC50 is less than 0.2 µM.

These data come from US12129237B2, “Substituted diaminocarboxamide and diaminocarbonitrile pyrimidines, compositions thereof, and methods of treatment therewith” (SIGNAL PHARMACEUTICALS, LLC, priority 2011, dated 2024).
